This test deals with β2-m and L-chain. The test can be described thus: adsorption ability of immobilized compounds / carriers for β2-m and L-chain. As to conditions: compound immobilized onto a carrier; in words. Type of test: binding. The source says:
In order to find out a compound which has an effect on adsorbing β2 -m and L-chain, compounds having various log P are immobilized onto a carrier.
As the result of an investigation using carriers having various molucular weights of the exclusion limit, it is shown that the preferable range of pore size indicated by molecular weight of the exclusion limit is from 1×10^4 to 6×10^5. […] Therefore, the molecular weight of the exclusion limit of the carrier empolyed in the present invention is preferably from 1×10^4 to 6×10^5,more preferably from 2×10^4 to 3×10^5.

The results in this text go back to patent US4721730A, “Adsorbent for β2 -microglobulin and immunoglobulin L-chain” (Kanegafuchi Kagaku Kogyo Kabushiki Kaisha, priority 1986, dated 1988).

Regarding `CCCCCCCCN` [n-octylamine], the “adsorption ability of β2-m and L-chain” value was “extraordinarily increased”.
